Source: publication PMC4428838, “Optimization of Invasion-Specific Effects of Betulin Derivatives on Prostate Cancer Cells through Lead Development” (PLoS ONE, 2015)

Legend:
Assay type in all cases: cell-based
PC-3 [1] = assay: cells; conditions: Homo sapiens, PC-3; 2D monolayer, 72 h, Harmony software; no unit in the table, μM; read-out: Estimated EC50 values for cell proliferation, PC-3
Experimental: (§1) To rule out that cytotoxic and antimitotic effects were misinterpreted as anti-invasive, we tested compounds 4, 5, 6, 19 and 20 for inhibition of proliferation and induction of cell death in a 2D monolayer culture (summarized in Fig 6). […] LNCaP cells were more sensitive, with growth inhibition/cytotoxicity starting at 3 μM. The effects on non-transformed, apoptosis-sensitive Ep156T cells were strongest. Here, cytotoxic effects were typically observed already at 0.3–1 μM. […] We further calculated EC50 values for proliferation, apoptosis and cell death for each compound, using the PerkinElmer Harmony software (method validation shown in S7 Fig). The only assay that produced results consistent with those of the betulin derivatives tested in the 2D cell culture model was the proliferation assay (Table 1).
(§2) Fig 6 Cytotoxicity tests performed in 2D monolayer culture. A) Cell proliferation/cell number, B) programmed cell death (apoptosis), and C) number of dead cells were assessed by conventional assays, combined with high-content microscopy (Operetta). […] Proliferation was measured as the total number of nuclei (= cells), apoptosis as ratio of caspase-3 positive versus all cells, and cell death as ethidium homodimer-2 positive nuclei versus all cells.
(§3) Cells were transferred into CellCarrier 384-well plates (PerkinElmer, Waltham, MA, USA) at a density of 1250 cells/well, using Multidrop dispenser (ThermoFisher Scientific, Waltham, MA, USA). After overnight incubation at 37°C experimental, compounds were added with an ATS Acoustic Transfer System (EDC Biosystems, Fremont, CA, USA). For Ep156T cells the protocol was done in reverse with compounds dispensed before seeding of cells. Fluorescent markers were dispensed in culture medium using ATS system after 72-h compound exposure. Nuclei were stained with cell-permeable Hoechst 33342 (Molecular Probes, Eugene, OR, USA), dead cells with ethidium homodimer-2 (Invitrogen, Carlsbad, CA, USA) and apoptotic cells with NucView caspase-3 detection reagent (Essen Bioscience, Ann Arbor, MI, USA). Cells were imaged with Operetta high-content imager (PerkinElmer, Waltham, MA, USA). Proliferation was measured from the number of nuclei (cells), cell death and apoptosis from positive cells/total cells ratio using Harmony image analysis software (PerkinElmer, Waltham, MA, USA). EC50 values were also assessed with the Harmony software.

LNCaP = assay: Proliferation assay in 2D monolayer culture (number of nuclei, Operetta high-content imager, 72 h); conditions: Homo sapiens, Harmony software, no unit in the table, μM, read-out: Estimated EC50 values for cell proliferation, LNCaP
Experimental: as §1, §2, §3

EP156T = assay: as above; conditions: Harmony software, no unit in the table, μM, read-out: Estimated EC50 values for cell proliferation, EP156T
Experimental: as §1, with “6). A broad range of compound concentrations (1 nM to 30 μM) were used for PC-3, LNCaP and Ep156T cell lines, and analyzed with the PerkinElmer Operetta high-content imager.” for “6).”
as §2, §3

[2] = system: PC-3, LNCaP, LAPC-4, Ep156T; assay: Primary and secondary 3D screens combined across the cell line panel; conditions: cell lines other than PC-3, 3D, 300 nM or lower (except compound 15)
Experimental: Fig 5 Secondary 3D screens. Experimental betulin derivatives and control compounds were tested across a panel of prostate cancer lines (LNCaP, LAPC-4) and non-transformed, prostate epithelial cells (EP156T) in 3D culture. A) The dendrogram is based on three main morphological parameters and combines all data from primary and secondary 3D screens. Effective compound treatments are indicated in red and yellow, yellow being the most invasion-specific. B) Boxplots showing the impact of selected compounds on spheroid size (Area). Data scaling: as described in Fig 4 C) Effects of all betulin derivatives and control compounds on cell death (number of dead cells).
In order to assist functional categorization of our betulin derivatives, we combined all data into a single dendrogram, shown in Fig 5A. In addition, multiparametric representation of all experimental data as a single heatmap is highly informative (S5 Fig) and a potent way to illustrate the effects of compounds on growth, structural complexity and cell death across multiple cell lines. […] However, at lower concentrations, these compounds may act as potent and specific inhibitors of cell invasion and motility.
Supplementary file pone.0126111.s005.eps: S5 Fig Primary and secondary screens. […] The main read-outs (Area = Size, Complexity = Invasiveness, Red = Cell death) are shown in their own columns. Data scaling: DMSO control has been given a value 0 whereas paclitaxel control is valued -100 or 100 depending on the read-out. Color key is located in the upper right corner. (EPS) Click here for additional data file.
Supplementary file pone.0126111.s006.tif: S6 Fig Confocal images from primary and secondary betulin screens. Viable cells have been stained with calcein AM (green) and dead cells with ethidium homodimer-2 (red) (5× objective, maximum intensity projections, scale bar = 100 μm). (TIF) Click here for additional data file.

[3] = system: actin cytoskeleton of PC-3, LNCaP and Ep156T spheroids; assay: F-actin cytoskeleton (phalloidin staining) in 3D spheroids; conditions: after 48 hours of exposure; seen in Ep156T acini and PC-3 spheroids, not LNCaP
Description: […] […] For phenotypic comparisons, we tested a panel of reference compounds targeting Akt, Rac, ROCK, Src, and other pathways, broadly linked to the actin cytoskeleton.
Fig 8 3D morphologies of prostate spheroids, exposed to selected betulin derivatives and captured with a confocal microscope. Actin cytoskeleton (filamentous or F-actin) is stained green (phalloidin), nuclei with a red dye (confocal microscope images, 40× objective, scale bar shown for each panel on the right lower corner).

PC-3 [4] = assay: Wound healing assay in 2D monolayer culture (IncuCyte); conditions: for wound healing 50% cut-off concentration: 2D monolayer, printed in Fig 4D; for reduction of wound closure: at 300 nM, after 64 hours, 2D
Experimental: Cells were cultured on ImageLock plates (Essen Bioscience, Ann Arbor, MI, USA) until fully confluent and scratched with a WoundMaker instrument (Essen Bioscience). All detached cells were removed by aspiration and medium supplemented with experimental compounds was added. Wound closure was monitored and quantified with the IncuCyte live-cell imager (Essen Bioscience).
A) Graph showing the transition of PC-3 spheroids from symmetrical acini to irregular invasive structures over 6 days, as measured by general symmetry (roundness %). […] B) Conventional wound healing assay performed in monolayer culture over a period of 64 hours. Wound closure is measured as relative wound density i.e. percentage of original wound area reclaimed by migrating cells. […] (EPS) Click here for additional data file.

Structure (SMILES)	EC50 (PC-3 [1]) [µM]	EC50 (LNCaP) [µM]	EC50 (EP156T) [µM]	effects on the other cell lines at anti-invasive concentrations [2]	organization of actin cytoskeleton in 3D spheroids [3]	wound healing 50% cut-off concentration (PC-3 [4])	reduction of wound closure (PC-3 [4]) [%]	concentration required in 2D culture for effects comparable to 3D (PC-3 [4]; 2D wound healing)
C=C(C)[C@@H]1CC[C@]2(C(=O)O)CC[C@]3(C)C(CCC4[C@@]5(C)Cc6c[nH]nc6C(C)(C)C5CC[C@]43C)C12 (stereo partly drawn) [Compound 6]	90.8	6.4	0.21	no noticeable effects on the other cell lines	effectively disrupted the organization of actin cytoskeleton	–	–	–
C=C(C)[C@@H]1CC[C@]2(C(=O)O)CC[C@]3(C)C(CCC4[C@@]5(C)Cc6ncccc6C(C)(C)C5CC[C@]43C)C12 (stereo partly drawn) [Compound 20]	66.9	132	0.19	no noticeable effects on the other cell lines	effectively disrupted the organization of actin cytoskeleton	ca. 0.3 μM	50	–
CC(C)[C@@H]1CC[C@]2(C(=O)O)CC[C@]3(C)C(CCC4[C@@]5(C)Cc6cnoc6C(C)(C)C5CC[C@]43C)C12 (stereo partly drawn) [Compound 4]	55.9	93.1	0.2	no noticeable effects on the other cell lines	–	ca. 0.3 μM	50	–
CC(=O)O[C@H]1C(=O)[C@@]2(C)[C@H]([C@H](OC(=O)c3ccccc3)[C@]3(O)C[C@H](OC(=O)[C@H](O)[C@@H](NC(=O)c4ccccc4)c4ccccc4)C(C)=C1C3(C)C)[C@]1(OC(C)=O)CO[C@@H]1C[C@@H]2O [Paclitaxel, paclitaxel, reference compound]	0.0012	0.0006	0.0008	–	–	–	–	–
C=C(C)[C@@H]1CC[C@]2(C(=O)O)CC[C@]3(C)C(CCC4[C@@]5(C)Cc6cccnc6C(C)(C)C5CC[C@]43C)C12 (stereo partly drawn) [Compound 19]	86.9	0.9	0.18	no noticeable effects on the other cell lines	–	–	–	–
C=C(C)[C@@H]1CC[C@]2(C(=O)O)CC[C@]3(C)C(CCC4[C@@]5(C)Cc6cnoc6C(C)(C)C5CC[C@]43C)C12 (stereo partly drawn) [Compound 5]	9.5	64.6	0.22	–	effectively disrupted the organization of actin cytoskeleton	–	–	higher than 1 μM
